Primed or numbered codes have the meaning given here. The star is where a group is joined. NH(CH2)4NH′ = not defined here; Boc = CC(C)(C)OC(=O)*
Test system: clotting enzyme
Experiment: Study on the reactivity of clotting enzyme by substrate (β-glucan-activated LAL fraction, HPLC of released fluorescent compound)
Format: biochemical, Limulus polyphemus
Details: β-glucan-specific LAL fraction, 25 ng/mL standard β-glucan (lentinan), 37° C., FIG. 3
Protocol: b) Aqueous solution of the peptide derivative of the present invention (hereinafter, sometimes abbreviated as substrate of the present invention): Boc-Thr-Gly-Arg-Gly-NH(CH2)4NH-Hilyte647 was dissolved in β-glucan-free water, and prepared to give 640 μM.
c) Aqueous substrate solution of known analogous substrate: Boc-Thr-Gly-Arg-NH-(CH2)4—NH-HiLyte647 obtained in Reference Example 1 was dissolved in β-glucan-free water, and prepared to give 640 μM.
d) Standard β-glucan solution: Intravenous lentinan preparation “Astellas” (Astellas Pharma Inc.) (1 mg) was dissolved in 0.1 M aqueous sodium hydroxide to give 50 μg/mL, and the solution was then diluted appropriately with β-glucan-free water, and used as the standard β-glucan solution. e) β-glucan specific LAL fraction solution: A fraction in which β-glucan-dependent clotting enzyme activity was detected was collected from the blood cell of American horseshoe crab (Limulus polyphemus) according to LAL extraction method described in pages 268 to 269 of “T. Kitagawa et al., Journal of Chromatography, 567 (1991) 267-273” and fractionation method by ion exchange chromatography, LAL fraction (a fraction corresponding to the fraction Nos. 7 to 20 in the above described literature) in 20 mM Tris-HCl buffer (pH 8.0) was obtained. […]

Substance | decomposition rate (area of released fluorescent compound versus total area) (after 2 hours of reaction) [%] | time in which the substrate was cleaved by the clotting enzyme (substrate 160 μM in reagent for reaction 1)
Boc-Thr-Gly-Arg-NH(CH2)4NH-Hilyte647 [Reference Example 1] | ≤ 20 | 
Boc-Thr-Gly-Arg-Gly-NH(CH2)4NH-Hilyte647 (Boc-TGRG-{NH(CH2)4NH′-HiLyte Fluor 647}) [tetrapeptide substrate with butanediamine spacer and HiLyte Fluor 647 dye] |  | about 20 minutes
